Experimental data published in patent US20030232013A1, “Therapeutic and diagnostic targeting of cancers cells with tumor homing peptides” (priority 2002, published 2003).
Read-outs that look alike come from different tables or passages of the source. Bridge positions count the residues as written; N and C are the ends. Square brackets hold non-standard residues; d marks the D form. Peptide text beside a SMILES is read from it. Ahx = NCCCCCC(=O)O

Experiments:
[1] = test system: T47D (Human) breast cancer cells; test: In vitro competitive cell binding assay, T47D
Experimental: (§1) In Vitro Competitive Cell Binding Assay. The IC50 values of both metallated and non-metallated STh conjugates were determined in human cancer cells by a competitive displacement cell binding assay using ^125I-STh (^125I-Tyr^5-Phe^19-STh or ^125I-Tyr^5-6-Ahx-Phe^19-STh). […] After the incubation, the reaction medium was aspirated and cells were washed three times with media. The radioactivity bound to the cells was counted in a Packard Riastar gamma counting system. The ^125I-STh bound to cells was plotted vs. increasing concentrations of STh conjugate to determine the respective IC50 values (Table 3). For statistical considerations, three separate in vitro cell binding experiments with each conjugate were performed in duplicate.

[2] = test system: MB-231 (Human) breast cancer cells; test: In vitro competitive cell binding assay, MB-231
Experimental: as §1

[3] = test system: MCF-7 (Human) breast cancer cells; test: In vitro competitive cell binding assay, MCF-7; conditions: competitive binding vs. ^125I-Tyr^5-6-Ahx-Phe^19-STh or ^125I-Tyr^5-Phe^19-STh
Experimental: as §1

[4] = test system: CFPAC-1 (Human) pancreatic cancer cells; test: In vitro competitive cell binding assay, CFPAC-1; conditions: competitive binding vs. ^125I-Tyr^5-6-Ahx-Phe^19-STh or ^125I-Tyr^5-Phe^19-STh
Experimental: as §1

[5] = test system: CAPAN-1 (Human) pancreatic cancer cells; test: In vitro competitive cell binding assay, CAPAN-1; conditions: competitive binding vs. ^125I-Tyr^5-6-Ahx-Phe^19-STh or ^125I-Tyr^5-Phe^19-STh
Experimental: as §1

[6] = test system: PC-3 (Human) prostate cancer cells; test: In vitro competitive cell binding assay, PC-3; conditions: competitive binding vs. ^125I-Tyr^5-6-Ahx-Phe^19-STh or ^125I-Tyr^5-Phe^19-STh
Experimental: as §1

[7] = test system: A375 (Human) melanoma cells; test: In vitro competitive cell binding assay, A375; conditions: competitive binding vs. ^125I-Tyr^5-6-Ahx-Phe^19-STh or ^125I-Tyr^5-Phe^19-STh
Experimental: as §1

[8] = test system: MB-468 (Human) breast cancer cells; test: In vitro competitive cell binding assay, MB-468; conditions: competitive binding vs. ^125I-Tyr^5-6-Ahx-Phe^19-STh or ^125I-Tyr^5-Phe^19-STh
Experimental: as §1

[9] = test system: H69 (Human) lung cancer cells; test: In vitro competitive cell binding assay, H69; conditions: competitive binding vs. ^125I-Tyr^5-6-Ahx-Phe^19-STh or ^125I-Tyr^5-Phe^19-STh
Experimental: as §1

[10] = test system: OVCAR-3 (Human) ovarian cancer cells; test: In vitro competitive cell binding assay, OVCAR-3; conditions: competitive binding vs. ^125I-Tyr^5-6-Ahx-Phe^19-STh or ^125I-Tyr^5-Phe^19-STh
Experimental: as §1

Compound	IC50 ([1]; competitive binding vs. ^125I-Tyr^5-6-Ahx-Phe^19-STh or ^125I-Tyr^5-Phe^19-STh, read-out: In vitro IC50, Breast T47D (Human))	IC50 ([2]; competitive binding vs. ^125I-Tyr^5-6-Ahx-Phe^19-STh or ^125I-Tyr^5-Phe^19-STh, read-out: In vitro IC50, Breast MB-231 (Human))	IC50 [3]	IC50 [4]	IC50 [5]	IC50 [6]	IC50 [7]	IC50 ([1]; competitive binding vs ^125-Tyr-6-Ahx-Phe^19-STh, read-out: IC50, T-47D (FIG. 5))	IC50 ([2]; competitive binding vs ^125-Tyr-6-Ahx-Phe^19-STh, read-out: IC50, MB-231 (FIG. 5))	IC50 [8]	IC50 [9]	IC50 [10]
CC(C)C[C@@H]1NC(=O)[C@H](CCC(=O)O)NC(=O)[C@@H]2CSSC[C@@H]3NC(=O)[C@H](C)NC(=O)[C@@H]4CCCN4C(=O)[C@H](CC(N)=O)NC(=O)[C@H](CSSC[C@H](NC(=O)[C@H](Cc4ccc(O)cc4)NC(=O)[C@H](CC(N)=O)NC(=O)[C@H](CO)NC(=O)[C@H](CO)NC(=O)[C@H](CC(N)=O)NC(=O)CCCCCN)C(=O)N2)NC(=O)[C@H](CSSC[C@@H](C(=O)N[C@@H](Cc2ccccc2)C(=O)O)NC(=O)CNC(=O)[C@H]([C@@H](C)O)NC3=O)NC1=O [6-Ahx-Phe^19-STh] (H-[Ahx]NSSNYCCELCCNPACTGCF-OH; disulfide 7-12, 8-16, 11-19 (inferred); N-terminus assumed)	5.6 ± 0.9 nM	5.2 ± 1.5 nM	4.6 ± 2.8 nM	4.4 ± 1.5 nM	4.5 nM	3.1 nM	6.4 ± 2.9 nM					
CC(C)C[C@@H]1NC(=O)[C@H](CCC(=O)O)NC(=O)[C@@H]2CSSC[C@@H]3NC(=O)[C@H](C)NC(=O)[C@@H]4CCCN4C(=O)[C@H](CC(N)=O)NC(=O)[C@H](CSSC[C@H](NC(=O)[C@H](Cc4ccc(O)cc4)NC(=O)[C@H](CC(N)=O)NC(=O)[C@H](CO)NC(=O)[C@H](CO)NC(=O)[C@@H](N)CC(N)=O)C(=O)N2)NC(=O)[C@H](CSSC[C@@H](C(=O)N[C@@H](Cc2ccccc2)C(=O)O)NC(=O)CNC(=O)[C@H]([C@@H](C)O)NC3=O)NC1=O [Phe^19-STh] (H-NSSNYCCELCCNPACTGCF-OH; disulfide 6-11, 7-15, 10-18)								3 ± 1.7 nM	5.2 ± 1.3 nM	2.8 nM	4.5 ± 1.7 nM	3.2 nM
